Test results from ChEMBL document CHEMBL5465560, “Selectivity Literature for EUbOPEN Chemogenomic Library” (2024).

Experiments:
[1] = biological target: T1, Discoidin domain-containing receptor 2 (Homo sapiens) (UniProt Q16832); assay: Selectivity interaction (Kinase panel (Invitrogen)) EUB0000639a DDR2; details: at 200 nM
T1 sequence (whole entry): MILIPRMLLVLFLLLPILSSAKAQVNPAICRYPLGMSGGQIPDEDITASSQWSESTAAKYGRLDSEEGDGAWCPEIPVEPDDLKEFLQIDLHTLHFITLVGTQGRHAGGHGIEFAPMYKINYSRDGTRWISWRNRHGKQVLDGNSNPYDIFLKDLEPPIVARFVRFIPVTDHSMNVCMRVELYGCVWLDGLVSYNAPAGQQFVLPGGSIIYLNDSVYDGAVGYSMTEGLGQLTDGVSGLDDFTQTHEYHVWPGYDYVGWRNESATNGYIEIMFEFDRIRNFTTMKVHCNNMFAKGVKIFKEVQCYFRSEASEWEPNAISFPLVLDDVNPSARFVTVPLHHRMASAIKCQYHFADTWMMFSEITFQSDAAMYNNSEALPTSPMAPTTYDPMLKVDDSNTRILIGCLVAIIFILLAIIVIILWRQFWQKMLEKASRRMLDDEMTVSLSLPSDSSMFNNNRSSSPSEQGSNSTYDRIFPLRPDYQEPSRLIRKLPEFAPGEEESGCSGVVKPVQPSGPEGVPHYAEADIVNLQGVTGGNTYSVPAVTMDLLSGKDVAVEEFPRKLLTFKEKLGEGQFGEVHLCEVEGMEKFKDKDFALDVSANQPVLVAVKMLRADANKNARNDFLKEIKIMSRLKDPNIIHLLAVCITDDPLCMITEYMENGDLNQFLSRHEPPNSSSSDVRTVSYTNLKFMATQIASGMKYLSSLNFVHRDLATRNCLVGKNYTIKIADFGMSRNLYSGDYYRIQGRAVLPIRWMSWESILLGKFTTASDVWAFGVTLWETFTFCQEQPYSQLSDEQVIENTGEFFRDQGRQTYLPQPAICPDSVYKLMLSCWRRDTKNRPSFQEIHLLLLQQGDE

[2] = biological target: Cyclin-dependent kinase 3 (Homo sapiens) (UniProt Q00526); assay: Selectivity interaction (KinomeScan (DiscoverX)) EUB0000618a CDK3; details: at 10 µM
[3] = biological target: T2, Dual specificity protein kinase TTK (Homo sapiens) (UniProt P33981); details: at 10 µM
T2 sequence (whole entry): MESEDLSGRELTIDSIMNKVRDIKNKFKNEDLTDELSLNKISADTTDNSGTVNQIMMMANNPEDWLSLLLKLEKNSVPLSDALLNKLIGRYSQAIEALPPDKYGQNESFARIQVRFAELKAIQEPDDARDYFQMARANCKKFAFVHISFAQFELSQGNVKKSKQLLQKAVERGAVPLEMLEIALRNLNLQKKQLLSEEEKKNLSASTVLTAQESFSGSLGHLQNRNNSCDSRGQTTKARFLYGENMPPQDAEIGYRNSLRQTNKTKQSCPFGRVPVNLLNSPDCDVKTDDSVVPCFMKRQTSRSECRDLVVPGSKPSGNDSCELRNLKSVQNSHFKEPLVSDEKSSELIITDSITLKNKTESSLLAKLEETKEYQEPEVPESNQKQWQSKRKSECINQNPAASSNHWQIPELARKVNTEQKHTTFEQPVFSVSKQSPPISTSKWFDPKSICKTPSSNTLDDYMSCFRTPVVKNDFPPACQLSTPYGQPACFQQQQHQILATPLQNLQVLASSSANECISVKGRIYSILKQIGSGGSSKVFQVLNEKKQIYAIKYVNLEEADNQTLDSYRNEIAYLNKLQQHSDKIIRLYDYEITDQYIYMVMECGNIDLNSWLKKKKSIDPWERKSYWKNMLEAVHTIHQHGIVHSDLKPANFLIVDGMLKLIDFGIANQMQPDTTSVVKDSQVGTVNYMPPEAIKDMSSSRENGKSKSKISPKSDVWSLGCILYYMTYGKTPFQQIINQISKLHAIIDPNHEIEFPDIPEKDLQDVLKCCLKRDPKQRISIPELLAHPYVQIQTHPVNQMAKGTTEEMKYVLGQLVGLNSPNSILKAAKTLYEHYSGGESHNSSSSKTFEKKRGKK

Adenosine receptor A2a = Adenosine receptor A2a (Homo sapiens, UniProt P29274); assay: Selectivity interaction (Panel of non-epigenetic targets (kinases, GPCRs, ion channels, and transporters, Eurofins) ) EUB0000271b ADORA2A; details: at 1 µM
Chain of Adenosine receptor A2a (P29274 whole entry): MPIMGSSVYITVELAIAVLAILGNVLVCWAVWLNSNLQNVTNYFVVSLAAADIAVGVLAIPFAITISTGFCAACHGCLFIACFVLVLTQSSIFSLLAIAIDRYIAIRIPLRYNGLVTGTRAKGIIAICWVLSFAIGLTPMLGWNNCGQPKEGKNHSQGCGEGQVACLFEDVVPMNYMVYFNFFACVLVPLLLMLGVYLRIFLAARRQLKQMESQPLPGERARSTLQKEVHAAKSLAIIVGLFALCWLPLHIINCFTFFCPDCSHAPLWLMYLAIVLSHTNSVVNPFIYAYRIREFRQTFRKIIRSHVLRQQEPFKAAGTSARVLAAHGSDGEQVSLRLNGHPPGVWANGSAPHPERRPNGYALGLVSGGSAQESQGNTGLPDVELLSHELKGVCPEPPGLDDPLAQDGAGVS

Chain of Cyclin-dependent kinase 3 (Homo sapiens) (Q00526 whole entry, looked up): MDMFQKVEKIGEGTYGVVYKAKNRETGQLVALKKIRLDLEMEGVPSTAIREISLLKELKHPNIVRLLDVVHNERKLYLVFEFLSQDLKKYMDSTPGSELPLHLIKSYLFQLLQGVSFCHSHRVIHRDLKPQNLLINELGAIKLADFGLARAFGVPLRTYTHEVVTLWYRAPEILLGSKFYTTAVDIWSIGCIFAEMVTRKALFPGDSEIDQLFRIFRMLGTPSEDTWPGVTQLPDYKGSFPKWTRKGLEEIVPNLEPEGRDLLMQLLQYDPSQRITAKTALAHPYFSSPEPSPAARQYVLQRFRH

Work on `CC[C@@H]1[C@H](F)C(=O)N[C@@H]1COc1nccc2cc(C(N)=O)c(OC)cc12` [ZIMLOVISERTIB] yielded a % of inhibition [1] of -2.26%.

`O[C@H]1CC[C@H](Nc2ncc3nc(Nc4c(F)cc(F)cc4F)n([C@H]4CCOC4)c3n2)CC1` gave a % of control [2] of 100%.

`Cc1cc([C@@H](C)Nc2ccccc2C(=O)O)c2nc(N3CCOCC3)cc(=O)n2c1` [AZD-6482] was tested, and the % of control [3] was 100%.

With `Cc1cc(C)cc([C@@H]2c3cc(C)ccc3NC(=O)CN2C(=O)c2ccc(Br)s2)c1` the % of inhibition (Adenosine receptor A2a) was 2%.
